Measured values taken from patent publication US10376520B2, “Methods for the treatment of cardiovascular disorders” (Galapagos NV, priority 2015, dated 2019).

System: Subjects With Active Crohn's Disease
Experiment: Total cholesterol determination, Study 5 (Crohn's disease, monotherapy of Compound 1)
Type: in vivo, human
Details: for [Total cholesterol] Mean CFB - 10 weeks results / [Total cholesterol] Median CFB - 10 weeks results / [Total cholesterol] Median CFB / [total cholesterol] Mean CFB: 200 mg q.d.; for [Total cholesterol] Median CFB / [total cholesterol] Mean CFB: Study 5 10 weeks results
Text: Double-Blind, Randomized, Placebo-Controlled, Multi-Centre Study to Investigate the Efficacy and Safety of Compound 1 in Subjects With Active Crohn's Disease With Evidence of Mucosal Ulceration.
This is a double-blind, randomized, placebo-controlled, multi-centre Phase 2 study to investigate the efficacy and safety of Compound 1 administered once daily for the treatment of active CD with evidence of mucosal ulceration. The pharmacokinetics (including a PK substudy) and pharmacodynamics of Compound 1 and metabolite in CD will also be characterised.
A total of 180 eligible subjects will be randomized to receive Compound 1 or placebo in addition to their stable background treatment (eg, corticosteroids, aminosalicylates, or CD-related antibiotics). The study will consist of 2 parts, with total treatment duration of 20 weeks. Randomization in Part 1 will be stratified according the subject's previous anti-TNF exposure/response, CRP level at Screening, and oral corticosteroid use at visit Day −1.
After the first 10 weeks of treatment in Part 1, patients will be re-randomized for Part 2 as shown in the diagram below and will be stratified according to the subject's clinical response, previous anti-TNF exposure/response, and oral corticosteroid use at visit Day −1.
The following assays were conducted at Eurofins Global Central Laboratory, Bergschot 71, 4817 PA Breda, The Netherlands, and at Quest Diagnostics, Clinical Trials, Quest House, 125-135 Staines Road, Hounslow, Middlesex, TW3 3JB, United Kingdom. The assays for Study 5 were performed at BARC Europe, 3B, Industrie Park, Zwijnaarde, B-9052 Ghent, Belgium.
This method is based on the determination of Δ^4 cholestenone after enzymatic cleavage of the cholesterol ester by cholesterol esterase, conversion of cholesterol by cholesterol oxidase, and subsequent measurement by the Trinder reaction of the hydrogen peroxide formed (Allain et al., 1974).
Cholesterol esters are cleaved by the action of cholesterol esterase to yield free cholesterol and fatty acids. Cholesterol oxidase then catalyzes the oxidation of cholesterol to cholest-4-en-3-one and hydrogen peroxide. In the presence of peroxidase, the hydrogen peroxide formed effects the oxidative coupling of phenol and 4-aminophenazone to form a red quinone-imine dye. The color intensity of the dye formed is directly proportional to the cholesterol concentration. It is determined by measuring the increase in absorbance.
Human serum and plasma samples cholesterol determination was done on a Roche/Hitachi Cobas c 701/702 system which automatically calculate the analyte concentration of each sample.

[1] = 200 mg q.d. continued to week 20, week 2
[2] = 200 mg q.d. continued to week 20, week 4
[3] = 200 mg q.d. continued to week 20, week 6
[4] = 200 mg q.d. continued to week 20, week 10
[5] = 200 mg q.d. continued to week 20, week 12
[6] = 200 mg q.d. continued to week 20, week 16
[7] = 200 mg q.d. continued to week 20, week 20
[8] = 200 mg q.d. week 0 to 10, to 100 mg q.d. week 10 to 20, week 2
[9] = 200 mg q.d. week 0 to 10, to 100 mg q.d. week 10 to 20, week 4
[10] = 200 mg q.d. week 0 to 10, to 100 mg q.d. week 10 to 20, week 6
[11] = 200 mg q.d. week 0 to 10, to 100 mg q.d. week 10 to 20, week 10
[12] = 200 mg q.d. week 0 to 10, to 100 mg q.d. week 10 to 20, week 12
[13] = 200 mg q.d. week 0 to 10, to 100 mg q.d. week 10 to 20, week 16
[14] = 200 mg q.d. week 0 to 10, to 100 mg q.d. week 10 to 20, week 20
[15] = 200 mg q.d. week 0 to 10, to placebo week 10 to 20, week 2
[16] = 200 mg q.d. week 0 to 10, to placebo week 10 to 20, week 4
[17] = 200 mg q.d. week 0 to 10, to placebo week 10 to 20, week 6
[18] = 200 mg q.d. week 0 to 10, to placebo week 10 to 20, week 10
[19] = 200 mg q.d. week 0 to 10, to placebo week 10 to 20, week 12
[20] = 200 mg q.d. week 0 to 10, to placebo week 10 to 20, week 16
[21] = 200 mg q.d. week 0 to 10, to placebo week 10 to 20, week 20

## O=C(Nc1nc2cccc(-c3ccc(CN4CCS(=O)(=O)CC4)cc3)n2n1)C1CC1 [Compound 1, cyclopropanecarboxylic acid {5-[4-(1,1-dioxo-thiomorpholin-4-ylmethyl)-phenyl]-[1,2,4]triazolo[1,5-a]pyridin-2yl}-amide]
[1]
  [Total cholesterol] Mean CFB - 20 weeks results: 7.30%
  [Total cholesterol] Median CFB - 20 weeks results: 5.15%
[2]
  [Total cholesterol] Mean CFB - 20 weeks results: 5.06%
  [Total cholesterol] Median CFB - 20 weeks results: 2.70%
[3]
  [Total cholesterol] Mean CFB - 20 weeks results: 6.70%
  [Total cholesterol] Median CFB - 20 weeks results: 7.88%
[4]
  [Total cholesterol] Mean CFB - 20 weeks results: 11.58%
  [Total cholesterol] Median CFB - 20 weeks results: 9.98%
[5]
  [Total cholesterol] Mean CFB - 20 weeks results: 11.06%
  [Total cholesterol] Median CFB - 20 weeks results: 6.99%
[6]
  [Total cholesterol] Mean CFB - 20 weeks results: 11.13%
  [Total cholesterol] Median CFB - 20 weeks results: 6.91%
[7]
  [Total cholesterol] Mean CFB - 20 weeks results: 11.03%
  [Total cholesterol] Median CFB - 20 weeks results: 5.31%
[8]
  [Total cholesterol] Mean CFB - 20 weeks results: 4.54%
  [Total cholesterol] Median CFB - 20 weeks results: 4.08%
[9]
  [Total cholesterol] Mean CFB - 20 weeks results: 6.72%
  [Total cholesterol] Median CFB - 20 weeks results: 1.92%
[10]
  [Total cholesterol] Mean CFB - 20 weeks results: 6.47%
  [Total cholesterol] Median CFB - 20 weeks results: 5.89%
[11]
  [Total cholesterol] Mean CFB - 20 weeks results: 9.72%
  [Total cholesterol] Median CFB - 20 weeks results: 7.10%
[12]
  [Total cholesterol] Mean CFB - 20 weeks results: 5.38%
  [Total cholesterol] Median CFB - 20 weeks results: 7.04%
[13]
  [Total cholesterol] Mean CFB - 20 weeks results: 2.89%
  [Total cholesterol] Median CFB - 20 weeks results: 2.83%
[14]
  [Total cholesterol] Mean CFB - 20 weeks results: 3.80%
  [Total cholesterol] Median CFB - 20 weeks results: 2.28%
[15]
  [Total cholesterol] Mean CFB - 20 weeks results: 3.98%
  [Total cholesterol] Median CFB - 20 weeks results: 3.93%
[16]
  [Total cholesterol] Mean CFB - 20 weeks results: 6.98%
  [Total cholesterol] Median CFB - 20 weeks results: 6.38%
[17]
  [Total cholesterol] Mean CFB - 20 weeks results: 5.72%
  [Total cholesterol] Median CFB - 20 weeks results: 7.32%
[18]
  [Total cholesterol] Mean CFB - 20 weeks results: 5.28%
  [Total cholesterol] Median CFB - 20 weeks results: 3.89%
[19]
  [Total cholesterol] Mean CFB - 20 weeks results: 1.82%
  [Total cholesterol] Median CFB - 20 weeks results: 3.93%
[20]
  [Total cholesterol] Mean CFB - 20 weeks results: 5.24%
  [Total cholesterol] Median CFB - 20 weeks results: 1.36%
[21]
  [Total cholesterol] Mean CFB - 20 weeks results: 3.92%
  [Total cholesterol] Median CFB - 20 weeks results: 2.50%
Week 2
  [Total cholesterol] Mean CFB - 10 weeks results: 6.066%
  [Total cholesterol] Median CFB - 10 weeks results: 4.148%
  [Total cholesterol] Median CFB: 0.200 mmol/L
  [total cholesterol] Mean CFB: 0.231 mmol/L
Week 4
  [Total cholesterol] Mean CFB - 10 weeks results: 5.803%
  [Total cholesterol] Median CFB - 10 weeks results: 3.803%
  [Total cholesterol] Median CFB: 0.180 mmol/L
  [total cholesterol] Mean CFB: 0.194 mmol/L
Week 6
  [Total cholesterol] Mean CFB - 10 weeks results: 6.458%
  [Total cholesterol] Median CFB - 10 weeks results: 7.187%
  [Total cholesterol] Median CFB: 0.300 mmol/L
  [total cholesterol] Mean CFB: 0.215 mmol/L
Week 10
  [Total cholesterol] Mean CFB - 10 weeks results: 9.976%
  [Total cholesterol] Median CFB - 10 weeks results: 7.456%
